# Values of other authors, collected in paper PMC2930141 (Biochimica et biophysica acta, 2010).
# Key:
# [1] = aqueous
# [2] = target: human carbonic anhydrase I (hCA I) (Homo sapiens, UniProt P00915)
# hCA I = conditions: bound to hCA I
# human carbonic anhydrase I (hCA I), sequence (P00915 whole entry): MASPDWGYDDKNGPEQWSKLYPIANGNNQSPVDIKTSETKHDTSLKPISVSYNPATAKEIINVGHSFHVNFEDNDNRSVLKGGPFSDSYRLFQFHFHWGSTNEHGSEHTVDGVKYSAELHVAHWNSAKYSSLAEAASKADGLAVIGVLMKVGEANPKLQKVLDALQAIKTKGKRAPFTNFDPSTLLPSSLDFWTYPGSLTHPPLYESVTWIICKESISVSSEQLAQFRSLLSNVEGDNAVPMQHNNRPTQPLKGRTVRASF
Compound,pKa of sulfonamide group [1],emission maximum of the enzyme-bound fluorophore [2] [nm],pKa from pH dependent binding affinity (hCA I),pKa from pH dependent binding affinity (hCA II)
NS(=O)(=O)c1ccccc1 [benzenesulfonamide],9.79,,,
"CN(C)c1cccc2c(S(N)(=O)=O)cccc12 [dansylamide, 5-dimethylamino-1-naphthalene sulfonamide]",,458,6.3,6.4
